# Results: patent US7179807B2, “5-substituted-2-arylpyrazines” (Neurogen Corporation, priority 2002, dated 2007)
# Molecular target: T1, CRF1 receptor (Homo sapiens, UniProt P34998)
# T1 construct: To induce CRF1 receptor expression, the cells are grown to approximately 80% confluence; endogenous in cells; host or cells: IMR-32 human neuroblastoma cells, BrdU-induced, as membrane homogenates
# T1 sequence (P34998 24-415): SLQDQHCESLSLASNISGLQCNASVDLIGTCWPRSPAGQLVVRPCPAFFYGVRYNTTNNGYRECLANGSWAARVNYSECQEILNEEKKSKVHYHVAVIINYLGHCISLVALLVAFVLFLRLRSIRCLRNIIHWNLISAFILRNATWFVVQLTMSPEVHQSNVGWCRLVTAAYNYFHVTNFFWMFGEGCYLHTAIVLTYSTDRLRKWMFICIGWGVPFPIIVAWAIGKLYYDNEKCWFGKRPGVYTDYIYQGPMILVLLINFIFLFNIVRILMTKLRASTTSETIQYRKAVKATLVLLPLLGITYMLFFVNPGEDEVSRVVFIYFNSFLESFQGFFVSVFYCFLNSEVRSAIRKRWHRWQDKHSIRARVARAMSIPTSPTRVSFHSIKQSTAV
# Test: standard in vitro CRF receptor binding assay (125I-CRF, IMR-32 cell membranes)
# Settings: Table I; asterisk = tested in the Example 30 assay, membranes of BrdU-induced IMR-32 cells, 125I-CRF 100 pM; read-out: Ki < 1 μM
# Description: As discussed above, the following assay is defined herein as a standard in vitro CRF receptor binding assay. The pharmaceutical utility of compounds of this invention is indicated by the following assay for CRF1 receptor activity.
# The CRF receptor binding is performed using a modified version of the assay described by Grigoriadis and De Souza (Methods in Neurosciences, Vol. 5, 1991). IMR-32 human neuroblastoma cells, a cell line that can be induced to express the CRF1 receptor, are cultured in growth medium consisting of EMEM w/Earle's BSS (JRH Biosciences, Cat# 51411) supplemented with 10% Fetal Bovine Serum, 25 mM HEPES (pH 7.2), 1 mM Sodium Pyruvate, and Non-Essential Amino Acids (JRH Biosciences, Cat# 58572). Stock cultures of cells are grown to confluence and subcultured twice per week at split ratios of 1:2 to 1:4 (cells are dislodged during subculturing using No-Zyme, JRH Biosciences, Cat# 59226). To induce CRF1 receptor expression, the cells are grown to approximately 80% confluence and then changed to growth media containing 2.5 μM 5-bromo-2′deoxyuridine (BrdU, Sigma, Cat# B9285). Growth media containing BrdU is replaced every 3–4 days and the cells are harvested via centrifugation (using No-Zyme) after 10 days of BrdU treatment. Harvested cells are stored frozen at −80° C. until needed for the preparation of membrane homogenates.
# To prepare receptor-containing membranes cells are homogenized in wash buffer (50 mM Tris HCl, 10 mM MgCl2, 2 mM EGTA, pH 7.4) and centrifuged at 48,000×g for 10 minutes at 4° C. The pellet is re-suspended in wash buffer and the homogenization and centrifugation steps are performed once more.
# Membrane pellets (containing CRF receptors) are resuspended and brought to a final concentration of 1.0 mg membrane protein/ml in binding buffer (Tris buffer above with 0.1% BSA and 0.1 mM bacitracin). For the binding assay, 150 microliters of the membrane preparation is added to 96 well microtube plates containing 50 microliters of ^125I-CRF (SA 2200 Ci/mmol, final concentration of 100 pM) and 2 microliters of test compound. Binding is carried out at room temperature for 2 hours. Plates are then harvested using 50 mM Tris buffer pH 7.4, on a BRANDEL 96 well cell harvester and filters (soaked in 1% PEI for 1.5 hours) are counted for gamma emissions on a Wallac 1205 BETAPLATE liquid scintillation counter. Non-specific binding is defined by 2 micromolar cold CRF. Ki values are calculated with the non-linear curve fitting program RS/1 (BBN Software Products Corp., Cambridge, Mass.).
row,Ki,Molecule
1,< 1 µM,"CCc1cc(-c2nc(OC)c(NC(CC)CC)nc2C)c(C)nc1OC [Compound 1, [5-(5-Ethyl-6-methoxy-2-methyl-pyridin-3-yl)-3-methoxy-6-methyl-pyrazin-2-yl]-(1-ethyl-propyl)-amine]"
2,< 1 µM,"CCc1nc(OC(CC)CC)c(NC)nc1-c1c(C)noc1C [Compound 5, [6-(3,5-Dimethyl-isoxazol-4-yl)-5-ethyl-3-(1-ethyl-propoxy)-pyrazin-2-yl]-methyl-amine]"
3,< 1 µM,"CCc1nc(OC(CC)CC)c(NC)nc1-c1ccc(C(C)C)nc1C [Compound 8, [5-Ethyl-6-(2-methyl-6-isopropyl-2-pyridin-3-yl)-3-(1-ethyl-propoxy)-pyrazin-2-yl]-methyl-amine]"
4,< 1 µM,"CCc1nc(OC(CC)CC)c(NC)nc1-c1ccc(C(C)C)nc1N1CCC1 [Compound 13, [6-(2-Azetidin-1-yl-6-isopropyl-pyridin-3-yl)-5-ethyl-3-(1-ethyl-propoxy)-pyrazin-2-yl]-methyl-amine]"
5,< 1 µM,"CCC(CC)Oc1nc(Br)c(-c2cc(Br)c(NC(C)C)nc2C)nc1NC [Compound 15, [3-(1-Ethyl-propoxy)-6-(6-isopropyl-amino-2-methyl-5-bromo-pyridin-3-yl)-5-bromo-pyrazin-2-yl]-methyl-amine]"
6,< 1 µM,[5-Ethyl-6-(2-ethyl-6-isopropoxy-2-pyridin-3-yl)-3-(1-ethyl-propoxy)-pyrazin-2-yl]-methyl-amine [Compound 6]

# More lines, now with the values behind:
row,Molecule,Ki
1,"CCC(CC)Nc1nc(C)c(-c2nc(OC)c(NC(CC)CC)nc2C)nc1OC [Compound 2, N-5,N-5′-Bis-(1-ethyl-propyl)-6,6′-dimethoxy-3,3′-dimethyl-[2,2′]bipyrazinyl-5,5′-diamine]",< 1 µM
2,"CCc1cc(-c2nc(NC)c(OC(CC)CC)nc2C)c(C)nc1OC [Compound 3, [5-Methyl-6-(5-ethyl-6-methoxy-2-methyl-pyridin-3-yl)-3-(1-ethyl-propoxy)-pyrazin-2-yl]-methyl-amine]",< 1 µM
3,"CCc1cc(-c2nc(NC)c(OC(CC)CC)nc2CC)c(C)nc1OC [Compound 4, [5-Ethyl-6-(5-ethyl-6-methoxy-2-methyl-pyridin-3-yl)-3-(1-ethyl-propoxy)-pyrazin-2-yl]-methyl-amine]",< 1 µM
4,"CCc1nc(OC(CC)CC)c(NC)nc1-c1ccc(C(C)C)nc1O [Compound 9, [5-Ethyl-6-(2-hydroxy-6-isopropyl-2-pyridin-3-yl)-3-(1-ethyl-propoxy)-pyrazin-2-yl]-methyl-amine]",< 1 µM
5,"CCc1nc(OC(CC)CC)c(NC)nc1-c1ccc(N(C)C)nc1C [Compound 10, [5-Ethyl-6-(2-methyl-6-dimethylamino-2-pyridin-3-yl)-3-(1-ethyl-propoxy)-pyrazin-2-yl]-methyl-amine]",< 1 µM
6,"CCc1nc(OC(CC)CC)c(NC)nc1-c1ccc(C(C)C)nc1N(C)C [Compound 11, [5-Ethyl-6-(2-dimethylamino-6-isopropyl-2-pyridin-3-yl)-3-(1-ethyl-propoxy)-pyrazin-2-yl]-methyl-amine]",< 1 µM
7,"CCc1nc(OC(CC)CC)c(NC)nc1-c1ccc(C(C)C)nc1N(CC)CC [Compound 14, [6-(2-Diethylamino-6-isopropyl-pyridin-3-yl)-5-ethyl-3-(1-ethyl-propoxy)-pyrazin-2-yl]-methyl-amine]",< 1 µM
8,"CCc1cc(-c2nc(NC)c(OC(CC)CC)nc2CC)c(C)nc1N(C)C [Compound 16, [6-(6-Dimethylamino-5-ethyl-2-methyl-pyridin-3-yl)-5-ethyl-3-(1-ethyl-propoxy)-pyrazin-2-yl]-methyl-amine]",< 1 µM
9,"CCC(CC)Oc1nc(C)c(-c2cc(C)c(NC(C)C)nc2C)nc1NC [Compound 17, [3-(1-Ethyl-propoxy)-6-(6-isopropyl-amino-2,5-dimethyl-pyridin-3-yl)-5-methyl-pyrazin-2-yl]-methyl-amine]",< 1 µM
10,[5-Ethyl-6-(2-ethoxy-6-isopropoxy-2-pyridin-3-yl)-3-(1-ethyl-propoxy)-pyrazin-2-yl]-methyl-amine [Compound 7],< 1 µM
